Results published in publication PMC3389279 (Bioorganic & medicinal chemistry letters, 2012).
Entries after “also recorded” stand apart in the source; their conditions may differ. Each block holds one molecule with its values, some of them ahead of it.

What was measured:
KCC2 [1] = target: T1, KCC2 (Homo sapiens, UniProt Q9H2X9); assay: 86Rb uptake assay in KCC2-overexpressing HEK293 cells; assay type: cell-based; details: first generation libraries, 2-pyridyl-based analogs
T1 sequence (Q9H2X9 1-1139): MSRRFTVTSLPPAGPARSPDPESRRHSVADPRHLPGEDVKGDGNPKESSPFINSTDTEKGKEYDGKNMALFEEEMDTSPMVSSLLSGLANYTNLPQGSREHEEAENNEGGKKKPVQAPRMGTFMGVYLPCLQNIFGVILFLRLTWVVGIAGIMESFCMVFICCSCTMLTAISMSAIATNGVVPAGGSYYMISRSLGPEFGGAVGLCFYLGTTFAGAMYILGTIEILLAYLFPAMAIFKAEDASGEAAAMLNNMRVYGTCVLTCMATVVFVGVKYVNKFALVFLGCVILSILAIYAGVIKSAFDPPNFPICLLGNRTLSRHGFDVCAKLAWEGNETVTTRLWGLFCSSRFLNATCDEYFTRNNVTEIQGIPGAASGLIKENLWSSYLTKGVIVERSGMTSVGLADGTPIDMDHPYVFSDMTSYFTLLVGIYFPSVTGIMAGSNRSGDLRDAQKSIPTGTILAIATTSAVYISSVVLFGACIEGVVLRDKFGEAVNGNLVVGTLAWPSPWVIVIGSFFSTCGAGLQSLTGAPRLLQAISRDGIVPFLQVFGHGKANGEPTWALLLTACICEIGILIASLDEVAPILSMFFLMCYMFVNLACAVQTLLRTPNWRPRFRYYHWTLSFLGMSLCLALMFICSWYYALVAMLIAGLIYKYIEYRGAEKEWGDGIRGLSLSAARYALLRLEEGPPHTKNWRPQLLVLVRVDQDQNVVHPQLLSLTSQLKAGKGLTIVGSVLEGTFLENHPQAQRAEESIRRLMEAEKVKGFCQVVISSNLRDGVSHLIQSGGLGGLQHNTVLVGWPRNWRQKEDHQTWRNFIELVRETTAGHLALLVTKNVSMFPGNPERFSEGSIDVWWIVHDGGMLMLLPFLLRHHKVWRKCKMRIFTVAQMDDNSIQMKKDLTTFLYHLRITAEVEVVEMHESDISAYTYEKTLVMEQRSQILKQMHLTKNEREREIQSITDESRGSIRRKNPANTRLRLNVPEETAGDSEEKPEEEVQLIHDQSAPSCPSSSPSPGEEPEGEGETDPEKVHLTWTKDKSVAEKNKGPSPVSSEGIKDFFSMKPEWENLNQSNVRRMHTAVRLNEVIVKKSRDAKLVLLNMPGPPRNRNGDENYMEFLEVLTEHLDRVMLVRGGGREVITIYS

NKCC1 [2] = target: T2, NKCC1 (Homo sapiens, UniProt P55011); details: KCC2 versus NKCC1; cited from earlier work
T2 sequence (P55011 1-1212): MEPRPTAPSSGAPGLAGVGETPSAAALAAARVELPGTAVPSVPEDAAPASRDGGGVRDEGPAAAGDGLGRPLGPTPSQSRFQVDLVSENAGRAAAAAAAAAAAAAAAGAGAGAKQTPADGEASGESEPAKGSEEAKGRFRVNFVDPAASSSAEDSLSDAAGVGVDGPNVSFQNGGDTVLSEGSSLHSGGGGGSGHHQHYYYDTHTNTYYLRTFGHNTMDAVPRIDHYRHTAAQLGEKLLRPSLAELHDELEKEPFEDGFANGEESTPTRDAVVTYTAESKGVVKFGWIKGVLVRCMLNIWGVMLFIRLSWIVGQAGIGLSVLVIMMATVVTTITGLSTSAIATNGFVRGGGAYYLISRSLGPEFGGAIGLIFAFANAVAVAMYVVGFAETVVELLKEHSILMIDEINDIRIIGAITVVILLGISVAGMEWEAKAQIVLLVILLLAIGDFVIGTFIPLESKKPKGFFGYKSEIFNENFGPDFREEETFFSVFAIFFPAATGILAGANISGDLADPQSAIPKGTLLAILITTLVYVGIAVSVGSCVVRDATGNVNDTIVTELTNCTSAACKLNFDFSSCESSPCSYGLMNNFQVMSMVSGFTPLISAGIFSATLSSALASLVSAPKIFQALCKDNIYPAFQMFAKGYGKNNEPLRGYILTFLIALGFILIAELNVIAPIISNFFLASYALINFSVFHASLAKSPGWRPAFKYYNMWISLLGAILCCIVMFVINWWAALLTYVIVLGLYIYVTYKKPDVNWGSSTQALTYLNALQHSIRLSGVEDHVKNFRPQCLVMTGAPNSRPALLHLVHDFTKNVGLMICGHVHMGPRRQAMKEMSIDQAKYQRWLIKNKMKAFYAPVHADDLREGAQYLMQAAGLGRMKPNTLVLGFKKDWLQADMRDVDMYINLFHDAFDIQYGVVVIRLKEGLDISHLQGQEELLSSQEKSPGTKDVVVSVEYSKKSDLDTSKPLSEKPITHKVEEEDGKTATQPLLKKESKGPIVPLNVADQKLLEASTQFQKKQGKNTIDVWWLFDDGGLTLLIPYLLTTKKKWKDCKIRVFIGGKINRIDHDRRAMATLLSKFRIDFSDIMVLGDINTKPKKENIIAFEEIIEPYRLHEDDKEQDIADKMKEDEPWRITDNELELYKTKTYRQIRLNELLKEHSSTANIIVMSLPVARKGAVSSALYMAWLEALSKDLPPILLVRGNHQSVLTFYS

[3] = Intrinsic clearance in human liver microsomes; assay type: in vitro ADME
[4] = Intrinsic clearance in rat liver microsomes; assay type: in vitro ADME
NKCC1 [5] = target: T2, NKCC1; assay: 86Rb uptake assay, NKCC1 function; assay type: cell-based; details: concentrations up to 100 µM
KCC2 [6] = target: T1, KCC2; details: intrathecal injection; cited from earlier work
[7] = tested on: 68 GPCRs, ion channels and transporters; assay: Lead Profiling screen at Ricerca, radioligand binding assays

CLint scaled [3]: 229 mL/min/kg | CLint scaled [4]: 294 mL/min/kg
Structure (SMILES): Cc1csc(N(C)C(=O)CSc2ccc(-c3ccccc3)nn2)n1 [compound 2]
selectivity versus NKCC1 (NKCC1 [2]): > 100 fold | inhibition of NKCC1 function (in words) (NKCC1 [5]): weak, partial inhibition; also recorded: weak partial inhibition | block of KCC2 in spinal cord (in words) (KCC2 [6]): used successfully to block KCC2 in spinal cord

KCC2 antagonist activity (in words) (KCC2 [1]): weak
Structure (SMILES): Cc1csc(N(C)C(=O)CSc2ccc(-c3ccccc3)cn2)n1 [compound 10]

Further lines, the molecule ahead of its results:

Structure (SMILES): Cc1csc(NC(=O)CSc2ccc(-c3ccccc3)cn2)n1 [compound 9]
KCC2 antagonist activity (in words) (KCC2 [1]): weak

Structure (SMILES): Cc1csc(NC(=O)CSc2ccc(-c3ccccc3)nn2)n1 [compound 1]
selectivity versus NKCC1 (NKCC1 [2]): > 100 fold

Structure (SMILES): Cc1csc(N(C(=O)CSc2ccc(-c3ccccc3)nn2)C2CC2)n1 [11k]
inhibition in ancillary pharmacology panel ([7]; 10 µM, 68 targets): ≤ 50% | activity in ancillary pharmacology panel (in words) ([7]; panel of 68 GPCRs, ion channels and transporters): no activity | Intrinsic clearance (in words) [3]: rapidly cleared in vitro | inhibition of NKCC1 function (in words) (NKCC1 [5]): weak, partial inhibition; also recorded: weak partial inhibition
